{
  "source": "patent US20240122923A1",
  "about": "“METHODS OF TREATING HIDRADENITIS SUPPURATIVA” (AbbVie Inc., priority 2022, published 2024)",
  "type_in_all_cases": "in vivo",
  "key": {"[1]": {"test_system": "adult human subjects with moderate to severe Hidradenitis Suppurativa (HS)", "assay": "Phase 2 randomized, double-blind, placebo-controlled study of upadacitinib, efficacy incl. post-hoc analysis through week 40", "settings": "UPA 30 mg QD; N=47; flare = AN count increase ≥25% with minimum increase of 2"}, "[2]": {"test_system": "adult human subjects with moderate to severe Hidradenitis Suppurativa (HS)", "assay": "Phase 2 study of upadacitinib in HS, safety (TEAEs, discontinuation due to adverse event)", "description": "(§1) This study was a Phase 2, multicenter, randomized, double-blind, parallel-group, placebo-controlled study to evaluate the efficacy and safety of upadacitinib in adult human subjects with moderate to severe Hidradenitis Suppurativa (HS).\n(§2) The duration of the study was 57 weeks, including an approximately 35-day screening period followed by a 48-week double-blinded treatment period and a 30-day follow-up visit after the last dose of study drug. Subjects were randomized in a 2:1 ratio to 1 of the 2 arms as shown below: • Upadacitinib 30 mg once daily (QD) (N=40): Daily oral doses of upadacitinib 30 mg from the Baseline visit through Period 1 and Period 2. • Placebo (N=20): Placebo for upadacitinib from the Baseline visit up to the Week 12 visit (Period 1). At Week 12, subjects were switched to blinded upadacitinib 15 mg QD through Period 2.\nTreatment-emergent adverse events (TEAEs), adverse events of interests (AESIs), and potentially clinically important (PCI) laboratory changes were monitored in Period 1."}, "[3]": {"test_system": "adult human subjects with moderate to severe Hidradenitis Suppurativa (HS)", "assay": "Phase 2 randomized, double-blind, placebo-controlled study of upadacitinib, efficacy incl. post-hoc analysis through week 40", "settings": "for Pain NRS30 at Week 12, UPA - PBO Diff: UPA 30 mg vs historical PBO rate 22.5%, p=0.028; for HiSCR at Week 12, UPA - PBO Diff: UPA 30 mg vs historical PBO rate 25%, 1-sided p=0.018; for HiSCR at Week 12, UPA - PBO Diff / HiSCR at Week 12, UPA - PBO Diff (adjusted difference): NRI-C; for HiSCR at Week 12, % (N), stratum TNF-IR / HiSCR at Week 12, % (N), stratum Hurley Stage (III) / HiSCR at Week 12, % (N), stratum Hurley Stage (<III) / HiSCR at Week 12, % (N), stratum TNF-Naïve / HiSCR at Week 12, % (N), Overall: UPA 30 mg, MI; for HiSCR at Week 12, % (N), stratum TNF-IR: N=12; for HiSCR at Week 12, % (N), stratum Hurley Stage (III): N=23; for HiSCR at Week 12, % (N), stratum Hurley Stage (<III): N=24; for HiSCR at Week 12, % (N), stratum TNF-Naïve: N=35; for HiSCR at Week 12, % (N), Overall: N=47", "description": "as §1, §2\nThe primary objective of this study was to assess the efficacy and safety of upadacitinib 30 mg QD in adult subjects with moderate to severe HS. The primary efficacy objective was assessed based on the achievement of HiSCR after 12 weeks treatment.\nThe primary endpoint was Hidradenitis Suppurativa Clinical Response (HiSCR) at Week 12, where HiSCR is defined as at least 50% reduction in the total abscess and inflammatory nodule (AN) count with no increase in abscess count and no increase in draining fistula count relative to Baseline.\nThe secondary endpoint was Pain Numerical Rating Scale (NRS30) at Week 12: the achievement of at least 30% reduction and at least 1 unit reduction from Baseline in NRS30 in Patient's Global Assessment of Skin Pain (PGA Skin Pain) at Week 12, among subjects with Baseline NRS≥3.\nThe following additional efficacy endpoints were evaluated: • 1. Experience of flare, defined as an increase in AN count of at least 25% with a minimum increase of 2 relative to Baseline • 2. Change from Baseline in Dermatology Life Quality Index (DLQI) • 3. Change from baseline in Hidradenitis Suppurativa Symptom Assessment (HSSA) • 4. Change from baseline in HS-related swelling, assessed based on the HSSA • 5. Change from baseline in HS-related odor, assessed based on the HSSA • 6. Change from baseline in HS-related worst drainage, assessed based on the HSSA\nFor the primary and secondary endpoints, comparisons of upadacitinib vs. placebo were made with 3 different analysis strategies, as summarized in Table 1 below:\nFor the additional endpoints, comparisons were made for upadacitinib vs. historical reference value of placebo, and upadacitinib vs. in-trial placebo subjects.\nFor categorical variables, the primary approach to handle missing data was Non-Responder Imputation [NRI] incorporating Multiple Imputation [MI]. For continuous variables, missing data was handled by Mixed-effect Model Repeat Measurement (MMRM). Missing data for long-term efficacy in Period 2 were handled based on the observed case (OC).\nA post-hoc efficacy assessment through week 40 was performed in the study of Example 1. The analysis included the proportion of patients achieving ≥75% and ≥90% reduction from baseline in AN count with no increase in abscess or draining fistula count (HiSCR 75 and HiSCR 90, respectively) and the proportion of patients achieving ≥55% reduction in International HS Severity Score System endpoint (IHS4-55), which dynamically assesses inflammatory nodules, abscesses, and draining tunnels."}, "[4]": {"settings": "UPA 30 mg vs in-trial PBO, p=0.086"}, "[5]": {"settings": "analysis vs synthetic + in-trial PBO"}},
  "data": [
    {"smiles": "CC[C@@H]1CN(C(=O)NCC(F)(F)F)C[C@@H]1c1cnc2cnc3[nH]ccc3n12", "note": "[upadacitinib]", "values": [
      {"measurement": "Flare during Period 1, n (%)", "setting": "[1]", "value": "6 (12.8%)"},
      {"measurement": "most frequently reported TEAE (≥5%)", "setting": "[2]; Period 1, upadacitinib 30 mg QD group", "value": "headache, dizziness, and urinary tract infection"},
      {"measurement": "Discontinued Study Drug during Period 2 (primary reason): Adverse event, n (%)", "setting": "[2]; Placebo/UPA 15 mg, N=19", "value": 0},
      {"measurement": "Discontinued Study Drug during Period 1: Adverse Event, n (%)", "setting": "[2]; UPA 30 mg, N=47", "value": "(2.1) %"},
      {"measurement": "Discontinued Study Drug during Period 2 (primary reason): Adverse event, n (%)", "setting": "[2]; UPA 30 mg, N=47", "value": 0},
      {"measurement": "Pain NRS30 at Week 12, UPA - PBO Diff", "setting": "[3]", "value": 13.9, "unit": "%"},
      {"measurement": "Pain NRS30 at Week 12, UPA - PBO Diff", "setting": "[3]; listed as UPA", "value": "Diff = 13.9%"},
      {"measurement": "HiSCR at Week 12, UPA - PBO Diff", "setting": "[3]", "value": 13.3, "unit": "%"},
      {"measurement": "HiSCR at Week 12, UPA - PBO Diff", "setting": "[3]; listed as UPA", "value": "Diff = 13.3%"},
      {"measurement": "Flare during Period 1, UPA - PBO Diff", "setting": "[3]; UPA 30 mg vs historical PBO rate 34%, p=0.001", "value": "Diff = −21.2"},
      {"measurement": "Change in HSSA odor at Week 12, UPA - PBO Diff", "setting": "[3]; UPA 30 mg vs historical reference value −0.72, p=0.072", "value": "Diff = −0.479"},
      {"measurement": "Change in HSSA total symptom at Week 12, UPA - PBO Diff", "setting": "[3]; UPA 30 mg vs historical reference value −0.72, p=0.188", "value": "Diff = −0.249"},
      {"measurement": "Change in HSSA swelling at Week 12, UPA - PBO Diff", "setting": "[3]; UPA 30 mg vs historical reference value −0.8, p=0.364", "value": "Diff = −0.131"},
      {"measurement": "Change in HSSA worst drainage at Week 12, UPA - PBO Diff", "setting": "[3]; UPA 30 mg vs historical reference value −0.89, p=0.219", "value": "Diff = −0.241"},
      {"measurement": "Change in DLQI at Week 12, UPA - PBO Diff", "setting": "[3]; UPA 30 mg vs historical reference value −2.5, p=0.548", "value": "Diff = 0.1"},
      {"measurement": "Pain NRS30 at Week 12, UPA - PBO Diff (adjusted difference)", "setting": "[3]; UPA 30 mg vs in-trial PBO (N=12), p=0.421", "value": 2.2, "unit": "%"},
      {"measurement": "Pain NRS30 at Week 12, UPA - PBO Diff (adjusted difference)", "setting": "[3]; UPA 30 mg vs in-trial PBO (N=12), p=0.421, listed as UPA", "value": "Diff = 2.2%"},
      {"measurement": "HiSCR at Week 12, UPA - PBO Diff (adjusted difference)", "setting": "[3]; UPA 30 mg vs in-trial PBO (N=21), p=0.087", "value": 14.7, "unit": "%"},
      {"measurement": "HiSCR at Week 12, UPA - PBO Diff (adjusted difference)", "setting": "[3]; UPA 30 mg vs in-trial PBO (N=21), p=0.087, listed as UPA", "value": "Diff = 14.7%"},
      {"measurement": "Change in HSSA odor at Week 12, UPA - PBO Diff", "setting": "[3]; UPA 30 mg vs in-trial PBO, p=0.024", "value": "Diff = −1.246"},
      {"measurement": "Change in HSSA total symptom at Week 12, UPA - PBO Diff", "setting": "[3]; UPA 30 mg vs in-trial PBO, p=0.046", "value": "Diff = −0.762"},
      {"measurement": "Change in HSSA swelling at Week 12, UPA - PBO Diff", "setting": "[3]; [4]", "value": "Diff = −0.795"},
      {"measurement": "Change in HSSA worst drainage at Week 12, UPA - PBO Diff", "setting": "[3]; [4]", "value": "Diff = −0.695"},
      {"measurement": "Change in DLQI at Week 12, UPA - PBO Diff", "setting": "[3]; UPA 30 mg vs in-trial PBO, p=0.222", "value": "Diff = −1.4"},
      {"measurement": "Flare during Period 1, UPA - PBO Diff", "setting": "[3]; UPA 30 mg vs in-trial PBO, p=0.231", "value": "Diff = −6.5"},
      {"measurement": "Pain NRS30 at Week 12, UPA - PBO Diff (adjusted difference)", "setting": "[3]; UPA 30 mg vs synthetic plus in-trial PBO (N=80), p=0.323", "value": "4.5% (−14.6, 23.5)"},
      {"measurement": "Pain NRS30 at Week 12, UPA - PBO Diff (adjusted difference)", "setting": "[3]; UPA 30 mg vs synthetic plus in-trial PBO (N=80), p=0.323, listed as UPA", "value": "Diff = 4.5%"},
      {"measurement": "HiSCR at Week 12, UPA - PBO Diff (adjusted difference)", "setting": "[3]; UPA 30 mg vs synthetic plus in-trial PBO (N=89), p=0.142", "value": "9.2% (−7.6, 25.9)"},
      {"measurement": "HiSCR at Week 12, UPA - PBO Diff (adjusted difference)", "setting": "[3]; UPA 30 mg vs synthetic plus in-trial PBO (N=89), p=0.142, listed as UPA", "value": "Diff = 9.2%"},
      {"measurement": "HiSCR at Week 12, % (N), stratum TNF-IR", "setting": "[3]; analysis vs in-trial PBO", "value": "41.7% (N = 12)"},
      {"measurement": "HiSCR at Week 12, % (N), stratum Hurley Stage (III)", "setting": "[3]; analysis vs in-trial PBO", "value": "39.7% (N = 23)"},
      {"measurement": "HiSCR at Week 12, % (N), stratum Hurley Stage (<III)", "setting": "[3]; analysis vs in-trial PBO", "value": "38.1% (N = 24)"},
      {"measurement": "HiSCR at Week 12, % (N), stratum TNF-Naïve", "setting": "[3]; analysis vs in-trial PBO", "value": "37.9% (N = 35)"},
      {"measurement": "HiSCR at Week 12, % (N), Overall", "setting": "[3]; analysis vs in-trial PBO", "value": "38.9% (N = 47)"},
      {"measurement": "HiSCR at Week 12, % (N), stratum TNF-IR", "setting": "[3]; [5]", "value": "41.7% (N = 12)"},
      {"measurement": "HiSCR at Week 12, % (N), stratum Hurley Stage (III)", "setting": "[3]; [5]", "value": "40.3% (N = 23)"},
      {"measurement": "HiSCR at Week 12, % (N), stratum Hurley Stage (<III)", "setting": "[3]; [5]", "value": "39.0% (N = 24)"},
      {"measurement": "HiSCR at Week 12, % (N), stratum TNF-Naïve", "setting": "[3]; [5]", "value": "39.0% (N = 35)"},
      {"measurement": "HiSCR at Week 12, % (N), Overall", "setting": "[3]; [5]", "value": "39.6% (N = 47)"}
    ]}
  ]
}
